ChEMBL document CHEMBL4308862, “Discovery of a novel azetidine scaffold for colony stimulating factor-1 receptor (CSF-1R) Type II inhibitors by the use of docking models” (Bioorg Med Chem Lett, 2019)

What follows are compounds tested against Macrophage colony-stimulating factor 1 receptor (Homo sapiens, UniProt P07333) (assay: Inhibition of human CSF1R tyrosine kinase domain (538 to 972 residues) using Poly(Glu, Tyr)-biotinylated peptide as substrate preincubated for 5 mins followed by substrate addition and measured after 10 mins by HTRF assay).
Sequence of Macrophage colony-stimulating factor 1 receptor (P07333 whole entry, the tested form may be a part): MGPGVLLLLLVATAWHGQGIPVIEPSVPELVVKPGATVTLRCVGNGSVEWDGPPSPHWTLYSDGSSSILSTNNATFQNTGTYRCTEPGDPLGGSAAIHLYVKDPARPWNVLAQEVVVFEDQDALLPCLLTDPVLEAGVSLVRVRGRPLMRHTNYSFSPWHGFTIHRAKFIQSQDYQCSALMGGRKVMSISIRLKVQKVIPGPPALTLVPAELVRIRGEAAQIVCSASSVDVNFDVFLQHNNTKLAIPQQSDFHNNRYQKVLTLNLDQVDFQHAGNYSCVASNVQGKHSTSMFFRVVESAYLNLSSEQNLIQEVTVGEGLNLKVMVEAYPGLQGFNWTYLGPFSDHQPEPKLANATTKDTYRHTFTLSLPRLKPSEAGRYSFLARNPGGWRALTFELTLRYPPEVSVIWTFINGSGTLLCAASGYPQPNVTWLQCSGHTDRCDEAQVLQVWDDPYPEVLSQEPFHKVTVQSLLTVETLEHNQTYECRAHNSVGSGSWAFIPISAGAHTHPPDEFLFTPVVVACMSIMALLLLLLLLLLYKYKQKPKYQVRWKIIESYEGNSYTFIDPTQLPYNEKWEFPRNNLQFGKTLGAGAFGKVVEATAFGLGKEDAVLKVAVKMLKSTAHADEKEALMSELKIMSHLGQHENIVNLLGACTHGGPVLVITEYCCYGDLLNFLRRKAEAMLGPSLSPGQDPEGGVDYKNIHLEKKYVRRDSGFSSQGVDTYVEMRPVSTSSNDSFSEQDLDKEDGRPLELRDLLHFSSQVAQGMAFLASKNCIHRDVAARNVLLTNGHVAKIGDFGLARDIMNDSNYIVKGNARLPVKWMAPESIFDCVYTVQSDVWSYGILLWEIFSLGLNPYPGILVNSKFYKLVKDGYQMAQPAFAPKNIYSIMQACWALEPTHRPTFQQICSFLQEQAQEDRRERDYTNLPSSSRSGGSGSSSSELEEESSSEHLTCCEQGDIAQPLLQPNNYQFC

IC50 | Compound
> 3 µM | CCc1ccc(COc2ccc(C3CN(Cc4cccnc4)C3)cc2OC)cc1
> 3 µM | CCc1ccc(COc2ccc(C3CN(Cc4ccccn4)C3)cc2OC)cc1
> 3 µM | CCc1ccc(COc2ccc(C3CN(c4ccccn4)C3)cc2OC)cc1
